Molecular target: T1, CCR4 (Homo sapiens, UniProt P51679)
T1 construct: expressed in transfected cells; host or cells: HEK293
T1 sequence (P51679 1-360): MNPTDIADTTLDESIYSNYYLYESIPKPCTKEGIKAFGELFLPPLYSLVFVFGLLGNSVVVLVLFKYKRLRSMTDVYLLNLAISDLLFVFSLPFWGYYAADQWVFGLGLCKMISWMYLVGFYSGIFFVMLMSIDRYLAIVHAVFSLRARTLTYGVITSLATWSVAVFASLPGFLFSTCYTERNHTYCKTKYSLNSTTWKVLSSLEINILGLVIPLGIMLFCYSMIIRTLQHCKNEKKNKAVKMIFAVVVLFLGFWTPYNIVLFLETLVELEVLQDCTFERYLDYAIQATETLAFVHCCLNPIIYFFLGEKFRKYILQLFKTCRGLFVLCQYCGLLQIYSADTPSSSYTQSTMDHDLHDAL
Assay: Calcium flow detected by FLIPR
Assay type: cell-based
Conditions: CCR4/HEK293 cells, agonist CCL17, Fluo-4 calcium signal
Method: CCR4/HEK293 cells were added to a 384-well cell culture plate (Greiner #781946) at a rate of 20 μL/well (20,000 cells/well) and incubated overnight in a 37° C., 5% CO2 incubator (Incubator, Thermo). On the second day, the 384-well cell culture plate was taken out of the incubator and the culture medium was removed; Then, 20 μL of detection buffer and 20 μL of 2X Fluo-4 Direct™ (Invitrogen, Cat #F10471) were added. Then, compounds were added at 10 μL/well (compounds were subjected to 4-fold serial dilution, and the highest detection concentration was 10 μM), and the cells were incubated in a 37° C., 5% CO2 incubator for 50 min, and then incubated at room temperature for 10 min. The 384-well culture plate was placed in FLIPR ([…]), 10 μL of 6X agonist CCL17 was added by using an automatic loader, and the fluorescence signal was read immediately. The mean and standard error (Mean±SEM) were statistically analyzed using Graphpad Prism software, and the IC50 value was calculated.
The experimental results are shown in Table 3, where A represents IC50<100 nm; B represents 100 nM≤IC50<500 nM, and C represents 500 nM≤IC50.

| IC50 [nM] | SMILES |
| --- | --- |
| 100 to 500 | C#Cc1cc(Cl)ccc1C(C)Nc1nc(N2CC(C3CCCN(C4CC(C)(C(=O)O)C4)C3)C2)nc(C)c1Cl (single isomer, unassigned) [Compound 7 isomer 2] |
| 100 to 500 | Cc1nc(N2CC(C3CCCC(N4CC(C)(C(=O)O)C4)C3)C2)nc(NC(C)c2ccc(Cl)cc2Cl)c1Cl (single isomer, unassigned) [Compound 8 isomer 1] |
| 100 to 500 | Cc1nc(N2CC(C3CCCN(C4CC(C)(C(=O)O)C4)C3)C2)nc(NC(C)c2cc(Cl)sc2Cl)c1Cl (single isomer, unassigned) [Compound 10 isomer 1] |
| < 100 | C#Cc1ccc(C(C)Nc2nc(N3CC([C@H]4CCCN([C@H]5C[C@](C)(C(=O)O)C5)C4)C3)nc(C)c2Cl)c(Cl)c1 (single isomer, unassigned) [Compound 11 isomer 1] |
| 100 to 500 | Cc1nc(N2CC(N3CCCC(N4CC(C)(C(=O)O)C4)C3)C2)nc(NC(C)c2ccc(Cl)cc2Cl)c1Cl (single isomer, unassigned) [Compound 16 isomer 1] |
| < 100 | Cc1nc(N2CC(N3CCCC(N4CC(C)(C(=O)O)C4)C3)C2)nc(NC(C)c2ccc(Cl)cc2Cl)c1Cl (single isomer, unassigned) [Compound 16 isomer 2] |
| < 100 | Cc1nc(C#CC2CCCN(C3CC(C)(C(=O)O)C3)C2)nc(NC(C)c2ccc(Cl)cc2Cl)c1Cl (single isomer, unassigned) [Compound 18 isomer 2] |
| < 100 | Cc1nc(C2CN(C3CCCN(C4CC(C)(C(=O)O)C4)C3)C2)nc(NC(C)c2ccc(Cl)cc2Cl)c1Cl (single isomer, unassigned) [Compound 20 isomer 3] |
| < 100 | C#Cc1ccc(C(C)Nc2nc(N3CC(C4CN(C5CC(C)(C(=O)O)C5)CCO4)C3)nc(C)c2Cl)c(Cl)c1 (single isomer, unassigned) [Compound 28 isomer 1] |
| 100 to 500 | C[C@@H](Nc1cc(N2CC(C3CN(C4CC(C)(C(=O)O)C4)CCO3)C2)ncn1)c1ccc(Cl)cc1Cl (single isomer, unassigned) [Compound 29 isomer 1] |
| < 100 | C#Cc1cc(Cl)ccc1C(C)Nc1nc(N2CC(C3CN(C4CC(C)(C(=O)O)C4)CCO3)C2)nc(C)c1Cl (single isomer, unassigned) [Compound 30 isomer 1] |
| < 100 | CC(Nc1nc(N2CC(C3CN(C4CC(C)(C(=O)O)C4)CCO3)C2)ncc1Br)c1ccc(Cl)cc1Cl (single isomer, unassigned) [Compound 37 isomer 1] |
| 100 to 500 | CC(Nc1nc(N2CC(C3CN(C4CC(C)(C(=O)O)C4)CCO3)C2)ncc1Br)c1ccc(Cl)cc1Cl (single isomer, unassigned) [Compound 37 isomer 2] |
| < 100 | CC(Nc1nc(N2CC(C3CN(C4CC(C)(C(=O)O)C4)CCO3)C2)ncc1Cl)c1ccc(Cl)cc1Cl (single isomer, unassigned) [Compound 42 isomer 1] |
| 100 to 500 | C[C@@H](Nc1nc(N2CC(C3CN(C4CC(C)(C(=O)O)C4)CCO3)C2)nc2ccsc12)c1ccc(Cl)cc1Cl (single isomer, unassigned) [Compound 54 isomer 1] |
| 100 to 500 | CC(Nc1nc(N2CC(C3CN(C4CC(C)(C(=O)O)C4)CCO3)C2)c2ccccc2n1)c1ccc(Cl)cc1Cl (single isomer, unassigned) [Compound 60 isomer 1] |
| 100 to 500 | CC(Nc1nc(N2CC(F)(C3CN(C4CC(C)(C(=O)O)C4)CCO3)C2)nc(C(F)(F)F)c1Cl)c1ccc(Cl)cc1Cl (single isomer, unassigned) [Compound 65 isomer 3] |
| 100 to 500 | CC(Nc1nc(N2CC(F)(C3CN(C4CC(C)(C(=O)O)C4)CCO3)C2)nc(C(F)F)c1Cl)c1ccc(Cl)cc1Cl (single isomer, unassigned) [Compound 66 isomer 3] |
| < 100 | C[C@@H](Nc1nc(N2CC(C3CN(C4CC(C)(C(=O)O)C4)CCO3)C2)nc2ccccc12)c1ccc(Cl)cc1Cl (single isomer, unassigned) [Compound 67 isomer 1] |
| 100 to 500 | C[C@@H](Nc1nc2c(c(N3CC(C4CN(C5CC(C)(C(=O)O)C5)CCO4)C3)n1)CN(C)C2)c1ccc(Cl)cc1Cl (single isomer, unassigned) [Compound 68 isomer 1] |
| 100 to 500 | Cc1nc(N2CC(C3CN(C4CC(C)(c5nn[nH]n5)C4)CCO3)C2)nc(NC(C)c2ccc(Cl)cc2Cl)c1Cl (single isomer, unassigned) [Compound 71 isomer 1] |
| 100 to 500 | CC(Nc1nc(N2CC(C3CN(C4CC(C)(C(=O)O)C4)CCC34CC4)C2)nc(C(F)F)c1Cl)c1ccc(Cl)cc1Cl (single isomer, unassigned) [Compound 74 isomer 3] |

| IC50 [nM] | SMILES |
| --- | --- |
| 100 to 500 | CC(Nc1cc(C#CC2CCCN(C3CC(C)(C(=O)O)C3)C2)ccc1Cl)c1ccc(Cl)cc1Cl (single isomer, unassigned) [Compound 75 isomer 2] |
| < 100 | C[C@@H](Nc1nc(N2CC(C3CN(C4CC(C)(C(=O)O)C4)CCO3)C2)nc(C(F)F)c1Cl)c1ccc(Cl)cc1Cl (single isomer, unassigned) [Compound 77 isomer 2] |
| 100 to 500 | Cc1nc(N2CC(C3CN(C4CC(c5nn[nH]n5)C4)CCO3)C2)nc(NC(C)c2ccc(Cl)cc2Cl)c1Cl (single isomer, unassigned) [Compound 79 isomer 1] |
| 100 to 500 | Cc1nc(N2CC(C3CN(C4CC(c5nn[nH]n5)C4)CCO3)C2)nc(NC(C)c2ccc(Cl)cc2Cl)c1Cl (single isomer, unassigned) [Compound 79 isomer 2] |
| < 100 | Cc1nc(N2CC(C3CN(CCO)CCN3C)C2)nc(NC(C)c2ccc(Cl)cc2Cl)c1Cl (single isomer, unassigned) [Compound 80 isomer 1] |
| 100 to 500 | Cc1nc(N2CC(C3CN(C4CC(C)(C(=O)O)C4)CCN3C)C2)nc(NC(C)c2ccc(Cl)cc2Cl)c1Cl (single isomer, unassigned) [Compound 81 isomer 1] |
| 100 to 500 | Cc1nc(N2CC(F)(C3CN(C4CC(C(=O)O)C4)CCO3)C2)nc(N[C@H](C)c2ccc(Cl)cc2Cl)c1Cl (single isomer, unassigned) [Compound 84 isomer 1] |
| < 100 | CC(Nc1nc(N2CC(C3C=CCN(C4CC(C)(C(=O)O)C4)C3)C2)nc(C(F)F)c1Cl)c1ccc(Cl)cc1Cl (single isomer, unassigned) [Compound 85 isomer 1] |
| < 100 | CC(Nc1cc(N2CC(F)(C3CN(C4CC(C)(C(=O)O)C4)CCO3)C2)ccc1Cl)c1ccc(Cl)cc1Cl (single isomer, unassigned) [Compound 86 isomer 1] |
| < 100 | CC(Nc1nc(N2CC(F)(C3CN(C4CC(C)(C(=O)O)C4)CCO3)C2)ncc1Cl)c1ccc(Cl)cc1Cl (single isomer, unassigned) [Compound 89 isomer 1] |
| < 100 | Cc1nc(N2CCC(C3CN(C4CC(C)(C(=O)O)C4)CCN3C)CC2)nc(NC(C)c2ccc(Cl)cc2Cl)c1Cl (single isomer, unassigned) [Compound 105 isomer 3] |
| < 100 | Cc1nc(N2CCC(F)(C3CN(C4CC(C)(C(=O)O)C4)CCO3)CC2)nc(NC(C)c2ccc(Cl)cc2Cl)c1Cl (single isomer, unassigned) [Compound 106 isomer 3] |
| < 100 | Cc1nc(N2CC=C(C3CN(C4CC(C)(C(=O)O)C4)CCO3)CC2)nc(NC(C)c2ccc(Cl)cc2Cl)c1Cl (single isomer, unassigned) [Compound 107 isomer 1] |
| < 100 | C[C@@H](Nc1cc(N2CCC(C3CN(C4CC(C)(C(=O)O)C4)CCO3)CC2)nc2ccnn12)c1ccc(Cl)cc1Cl (single isomer, unassigned) [Compound 111] |
| < 100 | C#Cc1c(C)nc(N2CC([C@H]3CCCN([C@H]4C[C@](C)(C(=O)O)C4)C3)C2)nc1N[C@H](C)c1ccc(Cl)cc1Cl [Compound 4] |
| < 100 | Cc1cc(N2CC([C@H]3CCCN([C@H]4C[C@](C)(C(=O)O)C4)C3)C2)nc(N[C@H](C)c2ccc(Cl)cc2Cl)n1 [Compound 12] |
| 100 to 500 | Cc1nc(N2CC([C@H]3CCCN([C@H]4C[C@](C)(C(=O)O)C4)C3)C2)nc(NC(C)c2cc3c(cc2Cl)CC3)c1Cl (some centres unmarked) [Compound 13] |
| < 100 | C[C@@H](Nc1cc(N2CC([C@H]3CCCN([C@H]4C[C@](C)(C(=O)O)C4)C3)C2)nc2ccnn12)c1ccc(Cl)cc1Cl [Compound 14] |
| < 100 | C[C@@H](Nc1cc(N2CC([C@H]3CCCN([C@H]4C[C@](C)(C(=O)O)C4)C3)C2)ncn1)c1ccc(Cl)cc1Cl [Compound 15] |
| < 100 | Cc1nc(N[C@H](C)c2ccc(Cl)cc2Cl)nc(N2CC([C@H]3CCCN([C@H]4C[C@](C)(C(=O)O)C4)C3)C2)n1 [Compound 17] |
| < 100 | C[C@H](c1ccc(Cl)cc1Cl)n1nc(C#N)c2ncc(N3CC(C4CN(CCO)CCO4)C3)nc21 (some centres unmarked) [Compound 19] |
| < 100 | C[C@@H](Nc1cc(N2CC([C@H]3CCCN([C@H]4C[C@](C)(C(=O)O)C4)C3)C2)cnn1)c1ccc(Cl)cc1Cl [Compound 21] |

Source: patent publication US20250340532A1, “HETEROCYCLIC COMPOUND CCR4 INHIBITOR AND USER THEREOF” (Xizang Haisco Pharmaceutical Co., Ltd., priority 2022, published 2025)
